Results taken from patent US7732449B2, “Inhibitors of cathepsin S” (IRM LLC, priority 2003, dated 2010).

Key:
Type in all cases: biochemical
Cathepsin S = Cathepsin S (Homo sapiens, UniProt P25774); test: Cathepsin S inhibition, fluorogenic peptide substrate kinetic assay;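 also: cleavage rate of a coumarin-labelled peptide substrate (50 µM) read as fluorescence increase at Ex 380 nm and Em 450 nm, relative to inhibitor-free control reactions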; conditions: Cathepsin S inhibition constant; pH5.5, 20 minutes preincubation at room temperature; read-out: Ki Cat. S
Cathepsin S, sequence (P25774 115-331, species assumed): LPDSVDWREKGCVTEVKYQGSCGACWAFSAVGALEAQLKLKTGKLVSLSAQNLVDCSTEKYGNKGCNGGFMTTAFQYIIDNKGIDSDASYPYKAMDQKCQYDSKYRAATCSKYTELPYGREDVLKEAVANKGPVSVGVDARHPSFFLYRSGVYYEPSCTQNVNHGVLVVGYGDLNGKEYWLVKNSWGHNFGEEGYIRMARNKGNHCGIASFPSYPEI

Cathepsin K = target: T1, Cathepsin K (Homo sapiens, UniProt P43235); test: Cathepsin K inhibition, fluorogenic peptide substrate kinetic assay (selectivity); conditions: ratio of cathepsin K inhibition constant to cathepsin S inhibition constant
T1 sequence (P43235 115-329): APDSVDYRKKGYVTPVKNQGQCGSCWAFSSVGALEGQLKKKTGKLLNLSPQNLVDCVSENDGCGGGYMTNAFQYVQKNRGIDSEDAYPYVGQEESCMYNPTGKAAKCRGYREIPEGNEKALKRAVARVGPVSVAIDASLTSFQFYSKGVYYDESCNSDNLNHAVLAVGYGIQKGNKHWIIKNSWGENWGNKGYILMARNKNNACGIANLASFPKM

Cathepsin L = Cathepsin L (Homo sapiens, UniProt P07711); test: Cathepsin L inhibition, fluorogenic peptide substrate kinetic assay (selectivity); conditions: ratio of cathepsin L inhibition constant to cathepsin S inhibition constant
Cathepsin L, sequence (P07711 114-333, species assumed): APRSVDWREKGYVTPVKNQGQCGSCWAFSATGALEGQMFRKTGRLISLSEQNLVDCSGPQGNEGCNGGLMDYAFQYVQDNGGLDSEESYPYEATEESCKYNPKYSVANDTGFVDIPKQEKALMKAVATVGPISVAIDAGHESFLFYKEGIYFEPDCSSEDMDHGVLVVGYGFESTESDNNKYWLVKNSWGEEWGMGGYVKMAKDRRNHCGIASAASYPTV

Cathepsin B = Cathepsin B (Homo sapiens, UniProt P07858); test: Cathepsin B inhibition, fluorogenic peptide substrate kinetic assay (selectivity); conditions: ratio of cathepsin B inhibition constant to cathepsin S inhibition constant;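 also: value is the cathepsin B inhibition constant divided by the cathepsin S one, each from kinetic fluorescence readings (ex 380 nm, em 450 nm) of a 10 µM coumarin peptide substrate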

## Cc1cc(NC[C@H](C)NC(=O)O[C@@H](CC2CCCCC2)C(=O)N2CCOCC2)no1 [Example 91, [1-(S)-Methyl-2-(5-methyl-isoxazol-3-ylamino)-ethyl]-carbamic acid 1-(S)-cyclohexylmethyl-2-morpholin-4-yl-2-oxo-ethyl ester]
Cathepsin S
  Ki: 1000 to 10000 nM
Cathepsin K
  Selectivity for Cat. S over Cat. K: + (+, >10)
Cathepsin L
  Selectivity for Cat. S over Cat. L: + (+, >10)
Cathepsin B
  Selectivity for Cat. S over Cat. B: + (+, >10)

## CC[C@@H](CN1CC(C)(C)c2cc(F)ccc21)NC(=O)O[C@@H](CC1CCCCC1)C(=O)N1CCOCC1 [Example 92, (S,S)-[1-(5-Fluoro-3,3-dimethyl-2,3-dihydro-indol-1-yl-methyl)-propyl]-carbamic acid 1-cyclohexylmethyl-2-morpholin-4-yl-2-oxo-ethyl ester]
Cathepsin S
  Ki: < 100 nM
Cathepsin K
  Selectivity for Cat. S over Cat. K: +++ (+++, >1000)
Cathepsin L
  Selectivity for Cat. S over Cat. L: +++ (+++, >1000)
Cathepsin B
  Selectivity for Cat. S over Cat. B: +++ (+++, >1000)

## CC(=O)N1CCN(C(=O)[C@H](CC2CCCCC2)OC(=O)N[C@@H](C)CN2c3ccc(F)cc3CC2(C)C)CC1 [Example 94, (S,S)-[2-(5-Fluoro-2,2-dimethyl-2,3-dihydro-indol-1-yl)-1-methyl-ethyl]-carbamic acid 2-(4-acetyl-piperazin-1-yl)-1-cyclohexylmethyl-2-oxo-ethyl ester]
Cathepsin S
  Ki: 1000 to 10000 nM
Cathepsin K
  Selectivity for Cat. S over Cat. K: + (+, >10)
Cathepsin L
  Selectivity for Cat. S over Cat. L: + (+, >10)
Cathepsin B
  Selectivity for Cat. S over Cat. B: + (+, >10)

## C[C@@H](CN1c2ccc(F)cc2CC1(C)C)NC(=O)O[C@@H](CC1CCCCC1)C(=O)N1CCN(S(C)(=O)=O)CC1 [Example 95, [2-(5-Fluoro-2,2-dimethyl-2,3-dihydro-indol-1-yl)-1-(S)-methyl-ethyl]-carbamic acid 1-(S)-cyclohexylmethyl-2-(4-methanesulfonyl-piperazin-1-yl)-2-oxo-ethyl ester]
Cathepsin S
  Ki: 1000 to 10000 nM
Cathepsin K
  Selectivity for Cat. S over Cat. K: + (+, >10)
Cathepsin L
  Selectivity for Cat. S over Cat. L: + (+, >10)
Cathepsin B
  Selectivity for Cat. S over Cat. B: + (+, >10)

## C[C@@H](CN1c2ccc(F)cc2CC1(C)C)NC(=O)O[C@@H](CC1CCCCC1)C(=O)N1CCSCC1 [Example 96, [2-(5-Fluoro-2,2-dimethyl-2,3-dihydro-indol-1-yl)-1-(S)-methyl-ethyl]-carbamic acid 1-(S)-cyclohexylmethyl-2-oxo-2-thiomorpholin-4-yl-ethyl ester]
Cathepsin S
  Ki: 1000 to 10000 nM
Cathepsin K
  Selectivity for Cat. S over Cat. K: + (+, >10)
Cathepsin L
  Selectivity for Cat. S over Cat. L: + (+, >10)
Cathepsin B
  Selectivity for Cat. S over Cat. B: + (+, >10)

## CC(C)[C@@H](CN1CC(C)(C)c2cc(F)ccc21)NC(=O)O[C@@H](CS(=O)(=O)Cc1ccccc1)C(=O)N1CCOCC1 [Example 110, [1-(S)-(5-Fluoro-3,3-dimethyl-2,3-dihydro-indol-1-ylmethyl)-2-methyl-propyl]-carbamic acid 2-morpholin-4-yl-2-oxo-1-(R)-phenylmethanesulfonylmethyl-ethyl ester]
Cathepsin S
  Ki: 1000 to 10000 nM
Cathepsin K
  Selectivity for Cat. S over Cat. K: + (+, >10)
Cathepsin L
  Selectivity for Cat. S over Cat. L: + (+, >10)
Cathepsin B
  Selectivity for Cat. S over Cat. B: + (+, >10)

## CC(C)[C@@H](CN1CC(C)(C)c2cc(F)ccc21)NC(=O)O[C@H](C(=O)N1CCOCC1)C1CCCCC1 [Example 111, [1-(S)-(5-Fluoro-3,3-dimethyl-2,3-dihydro-indol-1-ylmethyl)-2-methyl-propyl]-carbamic acid 1-(S)-cyclohexyl-2-morpholin-4-yl-2-oxo-ethyl ester]
Cathepsin S
  Ki: < 100 nM
Cathepsin K
  Selectivity for Cat. S over Cat. K: + (+, >10)
Cathepsin L
  Selectivity for Cat. S over Cat. L: ++ (++, >100)
Cathepsin B
  Selectivity for Cat. S over Cat. B: +++ (+++, >1000)
